What was measured:
[1] = system: Crude diglycosidase; experiment: Examination of temperature in the conversion into isoflavone aglycons by diglycosidase using soybean materials; type: biochemical, Penicillium multicolor IAM7153; design: Decomposition efficiency of glycitin family in roasted soy flour / Decomposition efficiency of daidzin family in roasted soy flour / Decomposition efficiency of genistin family in soymilk / Decomposition efficiency of daidzin family in soymilk / Decomposition efficiency of glycitin family in defatted soybean / Decomposition efficiency of daidzin family in defatted soybean: concentration or dose not given beside the values
In short: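 Soybean materials (50 mg) suspended in 20 mM acetate buffer pH 4.0 reacted with crude diglycosidase diluted to 1.88 AU/mL at 80, 65, 55, 45, 37 or 30° C. Reactions stopped with ethanol at 0, 1, 3 and 6 h; isoflavone glycosides and aglycons in supernatant detected by HPLC.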

[2] = system: β-Glucosidase derived from almond; experiment: Reactivity toward various isoflavone glycosides (HPLC); type: biochemical; design: unit not given here; conditions: 55 °C, pH 4.0
Procedure: Diglycosidase was diluted with an acetate buffer of pH 4.0 to prepare a 0.75 AU/mL enzyme solution. As references, a similar operation was conducted using β-glucosidase (manufactured by Fluka) derived from Aspergillus niger, β-glucosidase (manufactured by Sigma) derived from almond, β-xylosidase derived from pectinase G (manufactured by Amano Enzyme Inc.). Each of purified products of isoflavone glycosides (glycitin, acetylglycitin, malonylglycitin, daidzin, acetyldaidzin, malonyldaidzin, genistin, acetylgenistin, malonylgenistin, all manufactured by Nacalai Tesque, Inc.) was dissolved in methanol to prepare each 2 mM substrate solution. The reaction was carried out by mixing 10 μL of a substrate solution, 200 μL of 20 mM acetate buffer (pH 4.0), and 40 μL of each purified enzyme solution at a total liquid volume of 250 μL. The reaction was carried out at 55° C. and isolation of an aglycon isoflavone from an isoflavone glycoside in the reaction mixture was detected by HLPC at 0, 1, 3, and 6 hours of the reaction.
To the reaction mixture was added 700 μL of ethanol, followed by stirring and ultrasonication. After centrifugation at 15,000 rpm and 4° C. for 10 minutes, the supernatant was filtered through a filter and then the filtrate was applied to HPLC.
The isoflavone glycoside and aglycon isoflavone contained in the filtrate was separated and detected by a high performance liquid chromatography (HPLC, Shimadzu CLASS LC-10 system) using TOSOH TSK gel ODS-80TM column (manufactured by Tosoh Corporation). […] The absorbance at 260 nm was detected by a UV detector (Shimadzu, SPD-10AV). Using purified products (manufactured by Nacalai Tesque, Inc.) of the above isoflavone glycosides and aglycon isoflavones, the isoflavone glycoside and aglycon isoflavone were quantitatively determined according to a calibration curve method. By the way, unless otherwise stated, the measuring conditions of HPLC herein mean those described in the example.

[3] = 30° C., heat treatment of enzyme no, reaction time 0 h
[4] = 30° C., heat treatment of enzyme no, reaction time 1 h
[5] = 30° C., heat treatment of enzyme no, reaction time 3 h
[6] = 30° C., heat treatment of enzyme no, reaction time 6 h
[7] = 30° C., heat treatment of enzyme yes, reaction time 6 h
[8] = 30 °C, heat treatment of enzyme: no, 0 h
[9] = 30 °C, heat treatment of enzyme: no, 1 h
[10] = 30 °C, heat treatment of enzyme: no, 3 h
[11] = 30 °C, heat treatment of enzyme: no, 6 h
[12] = 30 °C, heat treatment of enzyme: yes, 6 h
[13] = 45° C., heat treatment of enzyme no, reaction time 0 h
[14] = 45° C., heat treatment of enzyme no, reaction time 1 h
[15] = 45° C., heat treatment of enzyme no, reaction time 3 h
[16] = 45° C., heat treatment of enzyme no, reaction time 6 h
[17] = 45° C., heat treatment of enzyme yes, reaction time 6 h
[18] = 45 °C, heat treatment of enzyme: no, 0 h
[19] = 45 °C, heat treatment of enzyme: no, 1 h
[20] = 45 °C, heat treatment of enzyme: no, 3 h
[21] = 45 °C, heat treatment of enzyme: no, 6 h
[22] = 45 °C, heat treatment of enzyme: yes, 6 h
[23] = 55° C., heat treatment of enzyme no, reaction time 0 h
[24] = 55° C., heat treatment of enzyme no, reaction time 1 h
[25] = 55° C., heat treatment of enzyme no, reaction time 3 h
[26] = 55° C., heat treatment of enzyme no, reaction time 6 h
[27] = 55° C., heat treatment of enzyme yes, reaction time 6 h
[28] = 55 °C, heat treatment of enzyme: no, 0 h
[29] = 55 °C, heat treatment of enzyme: no, 1 h
[30] = 55 °C, heat treatment of enzyme: no, 3 h
[31] = 55 °C, heat treatment of enzyme: no, 6 h
[32] = 55 °C, heat treatment of enzyme: yes, 6 h
[33] = 65° C., heat treatment of enzyme no, reaction time 0 h
[34] = 65° C., heat treatment of enzyme no, reaction time 1 h
[35] = 65° C., heat treatment of enzyme no, reaction time 3 h
[36] = 65° C., heat treatment of enzyme no, reaction time 6 h
[37] = 65° C., heat treatment of enzyme yes, reaction time 6 h
[38] = 65 °C, heat treatment of enzyme: no, 0 h
[39] = 65 °C, heat treatment of enzyme: no, 1 h
[40] = 65 °C, heat treatment of enzyme: no, 3 h
[41] = 65 °C, heat treatment of enzyme: no, 6 h
[42] = 65 °C, heat treatment of enzyme: yes, 6 h
[43] = 80° C., heat treatment of enzyme no, reaction time 0 h
[44] = 80° C., heat treatment of enzyme no, reaction time 1 h
[45] = 80° C., heat treatment of enzyme no, reaction time 3 h
[46] = 80° C., heat treatment of enzyme no, reaction time 6 h
[47] = 80° C., heat treatment of enzyme yes, reaction time 6 h
[48] = 80 °C, heat treatment of enzyme: no, 0 h
[49] = 80 °C, heat treatment of enzyme: no, 1 h
[50] = 80 °C, heat treatment of enzyme: no, 3 h
[51] = 80 °C, heat treatment of enzyme: no, 6 h
[52] = 80 °C, heat treatment of enzyme: yes, 6 h

CC(=O)OC[C@H]1O[C@@H](Oc2cc(O)c3c(=O)c(-c4ccc(O)cc4)coc3c2)[C@H](O)[C@@H](O)[C@@H]1O [acetylgenistin, 6″-O-acetylgenistin]
Decomposition efficiency of genistin family in concentrated soybean protein [1, 3]: 43.1% | Decomposition efficiency of genistin family in defatted soybean [1, 3]: 1.7% | Decomposition efficiency of genistin family in concentrated soybean protein [1, 4]: 43.2% | Decomposition efficiency of genistin family in defatted soybean [1, 4]: 1.3% | Decomposition efficiency of genistin family in concentrated soybean protein [1, 5]: 43.0% | Decomposition efficiency of genistin family in defatted soybean [1, 5]: 0.7% | Decomposition efficiency of genistin family in concentrated soybean protein [1, 6]: 42.5% | Decomposition efficiency of genistin family in defatted soybean [1, 6]: 0.1% | Decomposition efficiency of genistin family in concentrated soybean protein [1, 7]: 41.5% | Decomposition efficiency of genistin family in defatted soybean [1, 7]: 0.4% | Decomposition efficiency of genistin family in roasted soy flour [1, 8]: 45.5% | Decomposition efficiency of genistin family in soymilk [1, 8]: 0.9% | Decomposition efficiency of genistin family in roasted soy flour [1, 9]: 45.3% | Decomposition efficiency of genistin family in soymilk [1, 9]: not detected | Decomposition efficiency of genistin family in roasted soy flour [1, 10]: 43.8% | Decomposition efficiency of genistin family in soymilk [1, 10]: not detected | Decomposition efficiency of genistin family in roasted soy flour [1, 11]: 40.6% | Decomposition efficiency of genistin family in soymilk [1, 11]: not detected | Decomposition efficiency of genistin family in roasted soy flour [1, 12]: 43.8% | Decomposition efficiency of genistin family in soymilk [1, 12]: 0.9% | Decomposition efficiency of genistin family in concentrated soybean protein [1, 13]: 43.0% | Decomposition efficiency of genistin family in defatted soybean [1, 13]: 1.5% | Decomposition efficiency of genistin family in concentrated soybean protein [1, 14]: 42.8% | Decomposition efficiency of genistin family in defatted soybean [1, 14]: 0.8% | Decomposition efficiency of genistin family in concentrated soybean protein [1, 15]: 41.0% | Decomposition efficiency of genistin family in defatted soybean [1, 15]: 0.3% | Decomposition efficiency of genistin family in concentrated soybean protein [1, 16]: 39.6% | Decomposition efficiency of genistin family in defatted soybean [1, 16]: 0.2% | Decomposition efficiency of genistin family in concentrated soybean protein [1, 17]: 38.9% | Decomposition efficiency of genistin family in defatted soybean [1, 17]: 0.2% | Decomposition efficiency of genistin family in roasted soy flour [1, 18]: 45.3% | Decomposition efficiency of genistin family in soymilk [1, 18]: 0.9% | Decomposition efficiency of genistin family in roasted soy flour [1, 19]: 43.6% | Decomposition efficiency of genistin family in soymilk [1, 19]: not detected | Decomposition efficiency of genistin family in roasted soy flour [1, 20]: 38.5% | Decomposition efficiency of genistin family in soymilk [1, 20]: not detected | Decomposition efficiency of genistin family in roasted soy flour [1, 21]: 31.7% | Decomposition efficiency of genistin family in soymilk [1, 21]: not detected | Decomposition efficiency of genistin family in roasted soy flour [1, 22]: 39.5% | Decomposition efficiency of genistin family in soymilk [1, 22]: 0.6% | Decomposition efficiency of genistin family in concentrated soybean protein [1, 23]: 42.9% | Decomposition efficiency of genistin family in defatted soybean [1, 23]: 1.7% | Decomposition efficiency of genistin family in concentrated soybean protein [1, 24]: 43.1% | Decomposition efficiency of genistin family in defatted soybean [1, 24]: 0.7% | Decomposition efficiency of genistin family in concentrated soybean protein [1, 25]: 41.1% | Decomposition efficiency of genistin family in defatted soybean [1, 25]: 0.2% | Decomposition efficiency of genistin family in concentrated soybean protein [1, 26]: 39.0% | Decomposition efficiency of genistin family in defatted soybean [1, 26]: 0.1% | Decomposition efficiency of genistin family in concentrated soybean protein [1, 27]: 41.1% | Decomposition efficiency of genistin family in defatted soybean [1, 27]: 0.4% | Decomposition efficiency of genistin family in roasted soy flour [1, 28]: 45.7% | Decomposition efficiency of genistin family in soymilk [1, 28]: 0.6% | Decomposition efficiency of genistin family in roasted soy flour [1, 29]: 42.5% | Decomposition efficiency of genistin family in soymilk [1, 29]: not detected | Decomposition efficiency of genistin family in roasted soy flour [1, 30]: 34.0% | Decomposition efficiency of genistin family in soymilk [1, 30]: not detected | Decomposition efficiency of genistin family in roasted soy flour [1, 31]: 27.3% | Decomposition efficiency of genistin family in soymilk [1, 31]: not detected | Decomposition efficiency of genistin family in roasted soy flour [1, 32]: 39.9% | Decomposition efficiency of genistin family in soymilk [1, 32]: 0.7% | Decomposition efficiency of genistin family in concentrated soybean protein [1, 33]: 43.1% | Decomposition efficiency of genistin family in defatted soybean [1, 33]: 1.5% | Decomposition efficiency of genistin family in concentrated soybean protein [1, 34]: 45.2% | Decomposition efficiency of genistin family in defatted soybean [1, 34]: 1.2% | Decomposition efficiency of genistin family in concentrated soybean protein [1, 35]: 44.0% | Decomposition efficiency of genistin family in defatted soybean [1, 35]: 1.2% | Decomposition efficiency of genistin family in concentrated soybean protein [1, 36]: 43.4% | Decomposition efficiency of genistin family in defatted soybean [1, 36]: 1.1% | Decomposition efficiency of genistin family in concentrated soybean protein [1, 37]: 42.3% | Decomposition efficiency of genistin family in defatted soybean [1, 37]: 1.3% | Decomposition efficiency of genistin family in roasted soy flour [1, 38]: 45.5% | Decomposition efficiency of genistin family in soymilk [1, 38]: 0.9% | Decomposition efficiency of genistin family in roasted soy flour [1, 39]: 43.6% | Decomposition efficiency of genistin family in soymilk [1, 39]: not detected | Decomposition efficiency of genistin family in roasted soy flour [1, 40]: 40.5% | Decomposition efficiency of genistin family in soymilk [1, 40]: not detected | Decomposition efficiency of genistin family in roasted soy flour [1, 41]: 38.8% | Decomposition efficiency of genistin family in soymilk [1, 41]: not detected | Decomposition efficiency of genistin family in roasted soy flour [1, 42]: 44.3% | Decomposition efficiency of genistin family in soymilk [1, 42]: 1.1% | Decomposition efficiency of genistin family in concentrated soybean protein [1, 43]: 43.0% | Decomposition efficiency of genistin family in defatted soybean [1, 43]: 1.5% | Decomposition efficiency of genistin family in concentrated soybean protein [1, 44]: 44.0% | Decomposition efficiency of genistin family in defatted soybean [1, 44]: 1.8% | Decomposition efficiency of genistin family in concentrated soybean protein [1, 45]: 43.6% | Decomposition efficiency of genistin family in defatted soybean [1, 45]: 2.1% | Decomposition efficiency of genistin family in concentrated soybean protein [1, 46]: 43.4% | Decomposition efficiency of genistin family in defatted soybean [1, 46]: 2.5% | Decomposition efficiency of genistin family in concentrated soybean protein [1, 47]: 41.4% | Decomposition efficiency of genistin family in defatted soybean [1, 47]: 2.4% | Decomposition efficiency of genistin family in roasted soy flour [1, 48]: 45.3% | Decomposition efficiency of genistin family in soymilk [1, 48]: 0.9% | Decomposition efficiency of genistin family in roasted soy flour [1, 49]: 48.5% | Decomposition efficiency of genistin family in soymilk [1, 49]: 0.9% | Decomposition efficiency of genistin family in roasted soy flour [1, 50]: 48.2% | Decomposition efficiency of genistin family in soymilk [1, 50]: 1.0% | Decomposition efficiency of genistin family in roasted soy flour [1, 51]: 47.7% | Decomposition efficiency of genistin family in soymilk [1, 51]: 2.3% | Decomposition efficiency of genistin family in roasted soy flour [1, 52]: 43.4% | Decomposition efficiency of genistin family in soymilk [1, 52]: 2.5% | aglycon ([2]; Reaction time 0 h): 0 | glucoside ([2]; Reaction time 0 h): 100 | aglycon ([2]; Reaction time 1 h): 0 | glucoside ([2]; Reaction time 1 h): 100 | aglycon ([2]; Reaction time 3 h): 0 | glucoside ([2]; Reaction time 3 h): 100 | aglycon ([2]; Reaction time 6 h): 0 | glucoside ([2]; Reaction time 6 h): 100

— patent US7118895B2, “Process for producing aglycon by using diglycosidase and flavor-improved food containing the aglycon and converting agent to be used in the process” (Amano Enzyme Inc., priority 2000, dated 2006)
